The subject of data set [1] is MDAH-2774 cells. Briefly: In vitro sensitivity to CBDCA and Tax of miR-overexpressing cells (MTS assay). The class given is cell-based. The conditions noted are these: overexpression of the miR in MDAH-2274 cells; MTS assay 4 days later. As for the experimental part:
(§1) After drugs removal, cells were washed in PBS and incubated in the presence of serum for additionally 4 days. Cells viability was assessed using MTS assay (SIGMA) following manufacturer instructions. The reported IC50 values represent the mean of at least 3 independent experiments. For the evaluation of miR-484 effects on in vitro drug sensitivity parental, scramble and miR-484 expressing cells were plated in 96 wells plates (1000 cells/well) and treated with the indicated doses of CBDCA and TAX. Viability was evaluated after 4 days as described above.
For orientation: Tetrazolium assays rely on reduction of a dye to a coloured formazan, in cell work by metabolically active cells.

For data set [2], the system named is SKOV-3 cells. The description is as above. It is filed as cell-based. The conditions noted are these: overexpression of the miR in SK-OV3 cells; MTS assay 4 days later. As for the experimental part:
as §1

For data set [3], the system named is HGS. In words: Luciferase miRNA target reporter assay and western blot. The class given is cell-based, human. As to conditions: luciferase and western blot analyses. As for the experimental part: (§2) For overexpression of miR-296 and miR-484, 100 nM of pre-miR-296, pre-miR-484 and pre-negative control-2 (Ambion) was transfected into HEK293 and HUVE cells using Lipofectamine 2000 (Invitrogen). After 24 hr, cells were harvested and lysed in RIPA buffer containing protease inhibitor cocktail (Roche Diagnostic). Protein concentrations of total cell lysates were measured using a Bradford Protein Assay Dye Reagent Concentrate (Bio-Rad), and 35 μg of cell lysates was resolved on SDS-PAGE gels (Bio-Rad) and transferred to nitrocellulose followed by visualization with ECL detection reagents (Denville Scientific). The following primary antibodies were used: mouse monoclonal anti-Hgs (1:1000, Enzo Life Science), rabbit polyclonal anti-VEGF Receptor 2 (1:1000, Cell Signaling Technology), mouse monoclonal anti-VEGF-B (1:200, Santa Cruz Biotechnology), mouse monoclonal anti-a-Tubulin (1:2000, Sigma).
(§3) The 3′ UTR of the human HGS, and VEGFB genes were PCR amplified using the following primers:
(§4) and inserted into pGL3 control vector (Promega) by using Xba1 site immediately downstream from the stop codon of firefly luciferase, giving rise to the p3′UTR-HGS, and p3′UTR-VEGFB plasmids. These constructs were used to generate the p3′-UTRmut-HGS primers: […]
(Reporter assays use an easily measured gene product as a stand-in for the process of interest.)

For data set [4], the system named is HUVEC cells. Briefly: Co-culture of HUVEC with miR over-expressing ovarian cancer cells: miR transfer. The class given is cell-based. As for the experimental part: (§5) Total RNA was isolated with Trizol (Invitrogen) from cells and with High Pure miRNA Isolation Kit (Roche) in accordance with manufacturer's instructions for liquid samples. Mature miRs were assessed by the single-tube TaqMan MicroRNA Assay. miR expression was normalized in cells to RNU44 and RNU48. All retrotranscriptase (RT) reactions, including no-template controls and RT minus controls, were run in a GeneAmp PCR 9600 Thermocycler (Applied Biosystems).
(§6) Each sample was tested in triplicate unless otherwise specified. MicroRNAs from medium samples were isolated. After DNase treatment (Ambion), RNA concentrations were determined with a NanoDrop (Thermo Scientific). In serum samples were normalized to U6snRNA (Applied Biosystems), as indicated. Since U6 is inconsistent, the expression levels of target miRNAs were directly normalized to total RNA (the inventors tested before the absence of miR-296-5p and miR-484 in not conditioned medium).

The test system of data set [5] is VEGFR2. In words: VEGFR2 expression in HUVEC co-cultured with miR over-expressing ovarian cancer cells. The class given is cell-based. The conditions noted are these: HUVEC co-cultured 24 hours with miR over-expressing cells vs control.
The subject of data set [6] is ovarian cancer derived cell lines. In words: miR expression in stably transfected ovarian cancer cell lines and their conditioned medium (real time PCR). It is filed as cell-based. As to conditions: for miR in the CM of stably transfected cells: conditioned medium; for increase of miR expression over controls after stable transfection: miR-EGFP stable transfection in ovarian cancer cells. As for the experimental part: as §5, §6
Lentiviruses expressing miR-484 were produced in 293FT cell lines (Invitrogen), by calcium phosphate transfection. To this purpose, the System Biosciences (SBI, USA) miR Precursor Constructs were used, containing dual expression of the specific miR and the copGFP fluorescent marker, for simple identification and monitoring of cells positive for transfection and transduction. Conditioned media containing viruses was harvested 72 hours after transfection, and used to transduce epithelial ovarian cancer cell lines (EOC). In particular, SKOV-3 and MDAH-2774 were transduced with viruses expressing either GFP alone (called hereafter empty vector) or GFP and precursor of miR-484, and then monitored for their fluorescence expression.

Data set [7] concerns MDAH-2774 cells. Briefly: In vivo growth and susceptibility to Carboplatin+Taxol of xenografts expressing miR-484 (caliper). The arrangement: species or system nude mice. As for the experimental part:
(§7) Two approaches were used to evaluate the effects of miR-484 expression on in vivo chemosensitivity: 1) MDAH-2774 cells scrambled-miR (right flank) or miR-484 (left flank) and SKOV-3 scrambled-miR (right flank) or miR-484 (left flank) were injected and treated with intraperitoneal administration of Carboplatin (15 mg/kg) plus Taxol (5 mg/kg) twice a week, for 3 weeks. Tumor growth was follow by caliper measurement and/or by GFP visualization using the Ivis Lumina, Caliper Lifesciences. 2) Direct intratumoral delivery of lentiviruses expressing scrambled-miR (right flank) or miR484 (left flank) associated with carboplatin (15 mg/kg) plus taxol (5 mg/kg) intraperitoneal treatment.
Athymic female nude mice (8/group) were subcutaneously injected on both dorsal flanks with 100 ul of PBS containing 1.5×10^6 MDAH-2774 cells scrambled-miR (right flank) or miR-484 (left flank).
(§8) Same was carried out with SKOV-3, except that 2.2×10^6 cells have been injected. When tumor masses became visible treatment with CBDCA (15 mg/kg) and Tax (5 mg/kg) was started. Drugs were delivered diluted in 200 ul of PBS and intraperitoneally injected twice a week, for 4 weeks. Tumor masses were measured with a caliper twice a week, for 4 weeks. Moreover, exploiting the expression of GFP fluorescent marker by the ovarian cancer cells utilized, mice have been anesthetized and tumor masses imaged by the Ivis Lumina, Caliper Lifesciences, once a week, for 4 weeks. Mice were then sacrificed and tumor masses excised and included in OCT for further analyses.

The subject of data set [8] is SKOV-3 cells. In words: In vivo growth and susceptibility to Carboplatin+Taxol of xenografts expressing miR-484 (EGFP imaging). The arrangement: species or system nude mice. As to conditions: SK-OV3 cells expressing miR-484, EGFP fluorescence imaging. As for the experimental part: as §7, §8
In data set [9] the test system is MDAH-2774 cells. In words: Intratumoral delivery of lentivirus expressing miR-484 with CBDCA+Tax treatment. It is filed as in vivo, nude mice. The conditions noted are these: CBDCA+Tax biweekly for 3 weeks, tumor growth after 21 days. As to the method: as §7
For data set [10], the system named is VEGFB. Briefly: Luciferase miRNA target reporter assay and western blot. The class given is cell-based, human. The conditions noted are these: luciferase and western blot analyses. As to the method:
as §2, §3, §4

Data set [11] has as its system VEGFR2. In words: Luciferase and western blot after miR transfection in HUVEC cells. The class given is cell-based. As to conditions: luciferase and western blot analyses. As to the method:
as §2
A general note: A western blot detects proteins with antibodies after separation by electrophoresis.

In data set [12] the test system is MDAH-2774 xenograft tumors. Briefly: Vascular density (CD34, Chalkley eyepiece method) in xenograft tumors. The class given is in vivo, mice. The conditions noted are these: MDAH-2774 xenografts transduced with miR-484; 7 tumors. As to the method: (§9) Tumor sections (2 μm thick) were cut and for formalin fixed paraffin embedded sample deparaffinization was achieved trough graded alcohols. Primary antibody against CD34 was applied following manufacturer's instruction. Vascular density (CD34+) was assessed using the Chalkley eyepiece method. Whole tumor sections were scanned at low magnification under a conference microscope by two observers. Three areas with the highest vascular density (vascular hot-spots) were identified. At high magnification (×400) a 25-point Chalkley-Eyepiece graticule was applied to each hot-spot and oriented to permit the maximum number of points to hit on or within blood vessels. The mean value of the three counts represents the vascular density of the tumor.

Data set [13] concerns SK-OV3 xenograft tumors. The data set is described as above. The class given is in vivo, mice. The conditions noted are these: SK-OV3 xenografts transduced with miR-484; 7 tumors. As for the experimental part:
as §9

Data set [14] relates to HUVEC cells. Briefly: Tube formation assay on HUVEC cells with conditioned media from miR-484 expressing ovarian carcinoma cells. The class given is cell-based. As to conditions: CM from MDAH-2774 or SK-OV3 overexpressing miR-484. As to the method: Wells from a 48-well plate were filled with […] of matrigel (BD, non growth factor reduced 8-10 ug/ul) and let solidify at 37° C. for 1 hour. HUVEC cells (ATCC, 1×10^5) resuspended in […] of medium were then layered onto the matrigel layer and monitored over the time for the formation of tube-like structures. Time-lapse video microscopy (Leica) was used to create a movie of this process, collecting images every 5 minutes for up to 20 hours. Media used to resuspend endothelial cells were 1—complete medium for endothelial cells, used as positive control, 2—Serum reduced medium (2%), used as negative control, 3—conditioned medium (plus 2% serum) from […] or MDAH-2774 transduced with scrambled-miR or miR-484.

Data set [15] relates to VEGFB. In words: Western blot for VEGFB in cell lines stably transduced with miR-484. The class given is cell-based. The conditions noted are these: MDAH-2774 or SKOV-3 stably transduced with miR-484 vs scr-vector; western blot (data not shown).
[16] abbreviates: CBDCA and Tax treatment, 7 mice, miR-484 expressing tumors.

Where “and” joins values, the source holds several entries; their conditions need not be identical. Equal entries are not always repeated. Entries after “also recorded” stand apart in the source; their conditions may differ. A value given as a limit tells only on which side of the number the result lay.

“miR-296: microRNA miR-296 (SEQ ID NO: 9), over-expressed via pre-miR-296 transfection or stable miR-296-EGFP transfection (AGGGCCCCCCCUCAAUCCUGU; listed as RNA, chemistry not given here; listed as Homo sapiens)”: the “in vitro sensitivity to CBDCA and Tax” value in data set [1] and in [2] was “did not significantly affect” each time. The “endogenous levels of HGS” value in data set [3] is “modulated”. Further, the “time within which secreted miR enters HUVEC cells” value in data set [4] was no more than 24 h. The “expression of VEGFR2 on endothelial cells” value in [5] was “significantly increase”. For the same substance, in data set [6], the “miR in the CM of stably transfected cells” value is recorded as “found”. Besides, the “increase of miR expression over controls after stable transfection” value in data set [6] was no less than 2 fold.
As to “miR-484: microRNA hsa-miR-484 (SEQ ID NO: 11), over-expressed via lentiviral miR precursor construct or pre-miR-484 transfection (UCAGGCUCAGUCCCCUCCCGAU; listed as RNA, chemistry not fully specified; listed as Homo sapiens)”, the “in vitro sensitivity to CBDCA and Tax” value in data set [1] was “did not significantly affect”. In addition, the “in vitro sensitivity to CBDCA and Tax” value in data set [2] is “did not significantly affect”. In addition, the “mice in which tumor volume formed by miR-expressing cells was larger than control EGFP-expressing cells” value in data set [7] (15 days after subcutaneous inoculation, before treatment) is 6/8. Moreover, in [7] (setting [16]), the “increase of tumor size with respect to day 0 at the end of the treatment” value is listed as 1.3 fold and the “range of tumor size increase with respect to day 0” value is recorded as 0.8-1.8 fold. In [8] (CBDCA+Tax), the sensitivity to treatment entry was “significantly increased”. Further, the “growth of the primary tumor” value in [8] is listed as “did not affect”. Also, the “cases in which drug sensitivity increased” value in data set [9] is on record as 6/6. Besides, in data set [10], the “endogenous levels of VEGFB” value is reported as “modulated”. Also, in data set [11], the “endogenous levels of VEGFR2” value is on record as “modulated”. In addition, in data set [12], the mean microvessel density was 10±6.2 and 10; the “range of microvessel density” value is 4-22. Besides, in data set [13], the mean microvessel density was 9±5.5 and 9; the “range of microvessel density” value is given as 1-18. Further, the “formation of tube like structures by HUVEC” value in data set [14] (6 hours on 3D matrigel) was “impaired”. Further, in [14] (20 hrs), the “formation of tube like structures by HUVEC” value is “abolished; also recorded: reduces the ability of HUVEC to properly form and maintain tube-like structures”. In addition, in data set [4], the “time within which secreted miR enters HUVEC cells” value is no more than 24 h. Moreover, the “expression of VEGFR2 on endothelial cells” value in data set [5] is given as “significantly decrease”. In data set [6], the “miR in the CM of stably transfected cells” value is recorded as “increased” and the “increase of miR expression over controls after stable transfection” value is given as no less than 2 fold. Besides, in data set [15], the VEGFB expression entry is given as “down-regulated”.

The values above are taken from patent US9249468B2, “Methods and materials related to ovarian cancer” (The Ohio State University, priority 2011, dated 2016).
